In US20090274676A1, “COMBINATION OF DEHYDROEPIANDROSTERONE OR DEHYDROEPIANDROSTERONE-SULFATE WITH A PDE-4 INHIBITOR FOR TREATMENT OF ASTHMA OR CHRONIC OBSTRUCTIVE PULMONARY DISEASE” (priority 2003, published 2009):
Values joined by “and” are separate entries in the source; they are usually repeats but may differ in a detail not shown here. Identical values can stand only once.

Key:
Type in all cases: physicochemical
[1] = Particle size of jet-milled / spray-dried anhydrous DHEA-S (Malvern Mastersizer X, light microscope); details: for Mean particle size: spray dried, two batches
Method: Approximately 1 g sample was passed through the jet mill, once, and approximately 2 g sample were passed through the jet mill twice. […] The resulting solution was sonicated for 3 minutes and appeared fully dispersed. The dispersed solutions were tested on a Malvern Mastersizer X with a small volume sampler (SVS) attachment. One sample of dispersed material was tested 5 times. The median particle size or D (v, 0.5) of unmilled material was 52.56 μm and the % RSD (relative standard deviation) was 7.61 for the 5 values. The D (v, 0.5) for a single pass through the jet mill was 3.90 μm and the % RSD was 1.27, and the D (v, 0.5) from a double pass through the jet mill 3.25 μm and the % RSD was 3.10.
The solution was spray-dried with a B-191 Mini Spray-Drier (Buchi, Flawil, Switzerland) with an inlet temperature of 55° C., outlet temperature of 40° C., at 100% aspirator, at 10% pump, nitrogen flow at 40 mbar and spray flow at 600 units. The spray-dried product was suspended in hexane and Span85 surfactant added to reduce agglomeration. The dispersions were sonicated with cooling for 3-5 minutes for complete dispersion and the dispersed solutions tested on a Malvern Mastersizer X with a Small Volume Sampler (SVS) attachment. […] Visual examination by light microscope of the dispersions of each batch confirmed that spray drying produced small respirable size particles. The mean particle size was 2.4 μm and 2.0 μm for each batch, respectively.

[2] = Emitted dose studies with dry powder inhalers; details: for Emitted Dose (%): single runs
Method: DHEA-S powder was collected in Nephele tubes and assayed by HPLC. Triplicate experiments were performed at each airflow rate for each of the three dry powder inhalers tested (Rotahaler, Diskhaler and IDL's DPI devices). A Nephele tube was fitted at one end with a glass filter (Gelman Sciences, Type A/E, […]), which in turn was connected to the airflow line to collect the emitted dose of the drug from the respective dry powder inhaler being tested. A silicone adapter, with an opening to receive the mouthpiece of the respective dry powder inhaler being tested at the other end of the Nephele tube was secured. A desired airflow, of 30, 60, or 90 L/min, was achieved through the Nephele tube. Each dry powder inhaler's mouthpiece was inserted then into the silicone rubber adapter, and the airflow was continued for about four s after which the tube was removed and an end-cap screwed onto the end of each tube. The end-cap of the tube not containing the filter was removed and 10 ml of an HPLC grade water-acetonitrile solution (1:1) added to the tube, the end-cap reattached, and the tube shaken for 1-2 minutes. The end-cap then was removed from the tube and the solution was transferred to a 10 ml plastic syringe fitted with a filter (Cameo 13N Syringe Filter, Nylon, 0.22 μm). An aliquot of the solution was directly filtered into an HPLC vial for later drug assay via HPLC. […] When the micronized DHEA-S (only vial B used), was weighed for placement into the gelatin capsule or blister, there appeared to be a few aggregates of the micronized powder. […] Table 2 summarizes the results for the Rotahaler experiments at 3 different flow rates, for the Diskhaler experiments at 3 different flow rates, and of the multi-dose experiments at 3 different flow rates.

[3] = Aerosolization of neat DHEA-S dihydrate, Acu-Breathe single-dose inhaler, fine particle fraction; details: 30 L/min, IDL data
Text: The single-dose Acu-Breathe device is used for evaluating DHEA-S.dihydrate. […] These blisters are actuated into the Andersen 8-stage cascade impactor at flow rates ranging from 30 to 75 L/min with a glass twin-impinger throat. Stages 1-5 of the Andersen impactor are rinsed together to obtain an estimate of the fine particle fraction. Pooling the drug collected from multiple stages into one assay make the method much more sensitive. […] Using a carrier with a larger particle size typically improves the aerosol properties of micronized drug substances.

[4] = Diskhaler (2nd study), 87.8 L/min
[5] = IDL Multi-Dose (2nd study), 87.8 L/min

C[C@]12CC[C@H](OS(=O)(=O)[O-])CC1=CC[C@@H]1[C@@H]2CC[C@]2(C)C(=O)CC[C@@H]12.[Na+] [Anhydrous DHEA-S]
Median particle size D (v, 0.5) ([1]; double pass through the jet mill): 3.25 μm | Median particle size D (v, 0.5) ([1]; single pass through the jet mill): 3.90 μm | Mean particle size ([1]; Malvern Mastersizer X): 5.07±0.70 μm and 6.66±0.91 μm | Mean particle size ([1]; visual examination by light microscope): 2.4 μm and 2.0 μm | Median particle size D (v, 0.5) ([1]; unmilled material): 52.56 μm | Emitted Dose (%), Average [2, 4]: 59.1% | Emitted Dose (%) [2, 4]: 57.9% and 59.9% and 59.5% | Emitted Dose (%), Average ([2]; Diskhaler, 30 L/min): 58.6% | Emitted Dose (%) ([2]; Diskhaler, 30 L/min): 53.8% and 53.4% and 68.7% | Emitted Dose (%), Average ([2]; Diskhaler, 60 L/min): 68.2% | Emitted Dose (%) ([2]; Diskhaler, 60 L/min): 63.4% and 38.9% and 58.0% | Emitted Dose (%), Average ([2]; Diskhaler, 87.8 L/min): 51.3% | Emitted Dose (%) ([2]; Diskhaler, 87.8 L/min): 65.7% and 41.6% and 46.5% | Emitted Dose (%), Average [2, 5]: 84.8% | Emitted Dose (%) [2, 5]: 85.7% and 84.6% and 84.0% | Emitted Dose (%), Average ([2]; IDL Multi-Dose, 30 L/min): 85.4% | Emitted Dose (%) ([2]; IDL Multi-Dose, 30 L/min): 78.9% and 88.2% and 89.2% | Emitted Dose (%), Average ([2]; IDL Multi-Dose, 60 L/min): 84.0% | Emitted Dose (%) ([2]; IDL Multi-Dose, 60 L/min): 78.8% and 83.7% and 89.6% | Emitted Dose (%), Average ([2]; IDL Multi-Dose, 87.8 L/min): 72.6% | Emitted Dose (%) ([2]; IDL Multi-Dose, 87.8 L/min): 71.3% and 79.0% and 67.4% | Emitted Dose (%), Average ([2]; Rotahaler (2nd study), 87.8 L/min): 31.5% | Emitted Dose (%), Average ([2]; Rotahaler, 30 L/min): 34.7% | Emitted Dose (%), Average ([2]; Rotahaler, 60 L/min): 57.3% | Emitted Dose (%) ([2]; Rotahaler, 60 L/min): 58.1% and 68.2% and 45.7% | Emitted Dose (%), Average ([2]; Rotahaler, 87.8 L/min): 69.7% | Emitted Dose (%) ([2]; Rotahaler, 87.8 L/min): 73.2% and 67.1% and 68.7% | Fine particle fraction (mass entering the impactor) [3]: no detectable mass entered the impactor
